“Also recorded” adds a separate entry of the source. Like-named read-outs stand apart in the source and are kept apart here.
Target: T1, medaka Esr1 (mEsr1) (Oryzias latipes, UniProt P50241)
T1 construct: expressed in transfected cells; host or cells: HEK293 (human embryonic kidney cells), transient transfection with FuGENE HD
T1 sequence (P50241 1-620): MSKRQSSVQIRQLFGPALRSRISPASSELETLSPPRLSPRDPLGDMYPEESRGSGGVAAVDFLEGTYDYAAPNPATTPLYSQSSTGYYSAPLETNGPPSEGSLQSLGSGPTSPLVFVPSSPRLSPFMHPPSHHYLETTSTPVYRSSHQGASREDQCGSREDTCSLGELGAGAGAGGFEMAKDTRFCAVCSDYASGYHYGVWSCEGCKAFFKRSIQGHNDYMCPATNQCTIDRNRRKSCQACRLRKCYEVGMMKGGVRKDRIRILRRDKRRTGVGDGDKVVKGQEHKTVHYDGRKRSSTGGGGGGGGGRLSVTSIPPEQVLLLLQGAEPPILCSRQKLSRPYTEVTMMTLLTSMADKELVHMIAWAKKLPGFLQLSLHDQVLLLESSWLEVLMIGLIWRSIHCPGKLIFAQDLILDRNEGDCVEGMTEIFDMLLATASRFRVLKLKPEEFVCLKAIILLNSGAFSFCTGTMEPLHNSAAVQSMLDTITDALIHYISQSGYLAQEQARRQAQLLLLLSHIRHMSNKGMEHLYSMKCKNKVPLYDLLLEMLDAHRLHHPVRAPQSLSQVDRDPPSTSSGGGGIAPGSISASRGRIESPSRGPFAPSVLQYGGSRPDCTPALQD
Test: Medaka Esr1 reporter gene assay (RGA), antagonist assay with 1 nM E2, HEK293 cells
Type: cell-based, Japanese medaka (Oryzias latipes)
Procedure: To support interpretation of the biological effects observed in the FSTRA studies, in vitro RGAs using medaka Esr1 (mEsr1) and medaka ARβ (mARβ) were performed for the 16 test chemicals. In the present study, Esr1 and ARβ, which are ancestral subtypes among Esrs and ARs in Japanese medaka, were selected based on the phylogenetical analyses of Esr and AR with each receptor RGAs (Ogino et al., [2016], [2018]; Tohyama et al., [2015]).
The mEsr1 RGA consisting of agonist and antagonist assays were performed according to the methods previously reported (Katsu et al., [2010]; Lange et al., [2012]; Miyagawa et al., [2014]). Briefly, human embryonic kidney cells 293 (HEK293), precultured, were seeded in 96‐well plates at 15,000 cells/well with 200 μl of culture medium, phenol‐red‐free Dulbecco's Modified Eagle's medium (ThermoFisher Scientific K.K., Tokyo, Japan) supplemented with 2‐mM L‐glutamine and 10% charcoal/dextran‐treated fetal bovine serum (Hyclone, UT, USA), and then incubated for 24 h in 5% CO2 at 37°C. After the 24‐h incubation, 20 μl of test medium containing 40 ng of medaka Esr1/pcDNA3.1, 80 ng of ERE‐TK‐Luc, and 20 ng of pRL‐TK‐Rlu and 1.2 μL of transfection reagent FuGENE HD (Promega, WI, USA) were added into each well. The assay plates were incubated for another 4 h in order to transfect the three vectors into the HEK293 cells. After the vectors were successfully transfected, in agonist assay, 24 μl of concentrated test chemical solution was applied to the test medium in the plate wells. […] After chemical treatment for 40 h, luciferase activity of the cells was measured, and the promoter activity was calculated as firefly (Photinus pyralis)‐/sea pansy (Renilla reniformis)‐luciferase activity in each well. The luciferase activities were quantified by a chemiluminescence assay with Dual‐Luciferase Reporter Assay System (Promega) in accordance with the manufacturer's instructions, and luminescence intensity of firefly and sea pansy luciferin was measured using a luminometer, TriStar LB941 (Berthold Technology, Oak Ridge, TN, USA).
Effect concentrations, that is, EC50 (a half maximal effective concentration) in the agonist assay and IC50 (a half maximal inhibitory concentration) in the antagonist assay, were estimated by nonlinear curve fitting (e.g., three parameters logistic regression curve) using GraphPad Prism (GraphPad Software Inc., La Jolla, CA, USA).

[1] = mEsr1 RGA antagonist assay, 1 nM E2-mediated transactivation, ND = no significant response even at the highest assay concentration (in parentheses), read-out: Antagonist assay, IC50, Medaka Esr1

SMILES	IC50	mEsr1 antagonist activity (in words) (1 nM E2-mediated mEsr1 transactivation)	IC50 [1]
CC(=O)N1CCN(c2ccc(OCC3COC(Cn4ccnc4)(c4ccc(Cl)cc4Cl)O3)cc2)CC1 (stereo not shown) [KCZ, Ketoconazole]	> 10 µM	–	–
CC(=O)[C@H]1CC[C@H]2[C@@H]3CCC4=CC(=O)CC[C@]4(C)[C@H]3CC[C@]12C [P4, Progesterone]	> 10 µM	–	–
CCCCCCCCCCCCOS(=O)(=O)[O-].[Na+] [SDS, Sodium dodecyl sulfate]	–	no Esr inhibiting activity; also recorded: neithEsr agonistic nor antagonistic activity	> 100 µM
C#C[C@]1(O)CC[C@H]2[C@@H]3CCC4=CC(=O)CC[C@@H]4[C@H]3CC[C@@]21CC [LNG, Levonorgestrel]	> 100 µM	–	–
C[C@]12C=CC3=C4CCC(=O)C=C4CC[C@H]3[C@@H]1CC[C@@H]2O [TRB, 17β‐Trenbolone]	> 10 µM	–	–
C[C@]12CCC(=O)C=C1CC[C@@H]1[C@@H]2CC[C@@]2(C)[C@H]1CC[C@]2(C)O [MT, 17α‐methyltestosterone]	–	–	> 10 µM

Reference: paper PMC8359193, “Summary of reference chemicals evaluated by the fish short‐term reproduction assay, OECD TG229, using Japanese Medaka, Oryzias latipes” (Journal of Applied Toxicology, 2021)
